Test results published in the supplement of paper PMC4862054.

Legend:
Test in all cases: drug sensitivity score (DSS), CellTox Green (DSS (AUC-based score)); higher = stronger drug effect (viability inhibition or cytotoxicity); extreme values may be limits of the assay
Conditions in all cases: incubation time: 72 h
HCC1937 = tested on: HCC1937
Summary of the method: (§1)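 Normalisation on every plate relied on 0.1 % DMSO and a positive kill control. The plates, 384-well format, held compound at 5 concentrations 10-fold apart across a compound-specific 10,000-fold range, and breast cancer cell lines in 20 µl suspension were incubated on them for 72 h before CellTox Green and then CellTiter-Glo readings. The drug sensitivity score derives from the area under the fitted dose-response curve.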

Hs578T = tested on: Hs578T
Summary of the method: as §1

MDA-MB-231 = tested on: MDA-MB-231
Summary of the method: as §1

Row | Structure (SMILES) | drug sensitivity score (HCC1937) | drug sensitivity score (Hs578T) | drug sensitivity score (MDA-MB-231)
1 | C=CCNC1=C2C[C@@H](C)C[C@H](OC)[C@H](O)[C@@H](C)/C=C(\C)[C@H](OC(N)=O)[C@@H](OC)/C=C\C=C(/C)C(=O)NC(=CC1=O)C2=O [Tanespimycin] | 0 | 1.53 | 25.3
2 | CO[C@H]1C[C@@H]2CC[C@@H](C)[C@@](O)(O2)C(=O)C(=O)N2CCCC[C@H]2C(=O)O[C@H]([C@H](C)C[C@@H]2CC[C@@H](OC(=O)C(C)(CO)CO)[C@H](OC)C2)CC(=O)[C@H](C)/C=C(\C)[C@@H](O)[C@@H](OC)C(=O)[C@H](C)C[C@H](C)/C=C/C=C/C=C/1C [Temsirolimus] | 0 | 22.6 | 0
3 | C[C@]1(c2nc3c(C(N)=O)cccc3[nH]2)CCCN1 [Veliparib] | 0 | 0 | 0
4 | CC[C@]1(O)C[C@@H]2CN(CCc3c([nH]c4ccccc34)[C@@](C(=O)OC)(c3cc4c(cc3OC)N(C)[C@H]3[C@@](O)(C(=O)OC)[C@H](OC(C)=O)[C@]5(CC)C=CCN6CC[C@]43[C@@H]65)C2)C1 [Vinblastine] | 0 | 21.4 | 17
5 | CS(=O)(=O)c1ccc(C(=O)Nc2ccc(Cl)c(-c3ccccn3)c2)c(Cl)c1 [Vismodegib] | 0 | 1.09 | 0
